Experimental data from patent US20160101054A1, “SUSTAINED DELIVERY OF DRUGS FROM BIODEGRADABLE POLYMERIC MICROPARTICLES” (Yale University, priority 2008, published 2016).

Columns and labels:
EGFR [1] = molecular target: T1, EGFR (Rattus norvegicus, UniProt G3V6K6); assay: Bioactivity of AG1478: western blot of phosphorylated EGFR in FR3T3 cells after EGF; format: cell-based; settings: for bioactivity by western blot of activated EGFR: FR3T3 cells expressing EGFR at normal levels, concentration equal to IC50, EGF 100 ng/mL
T1 construct: cells expressing EGFR at normal levels; endogenous in cells; host or cells: FR3T3 (Fisher rat 3T3 fibroblasts)
Description: Microsphere size was ascertained using a Multisizer™ 3 Coulter Counter® and confirmed visually via SEM. […] Relative bioactivity was determined using the gray mean value for each phospho-EGFR band.

EGFR [2] = settings: in vivo; cited from earlier work

COc1cc2ncnc(Nc3cccc(Cl)c3)c2cc1OC [AG1478]
bioactivity by western blot of activated EGFR (EGFR [1]; listed as non-encapsulated AG1478): 89±4.5%
bioactivity by western blot of activated EGFR (EGFR [1]; listed as non-encapsulated inhibitor): 89±2.7%
inhibition in FR3T3 cells (EGFR [1]; at 3 mM (~[…] polymer)): greater than 95%
EGFR upregulation and activation of astrocytes, survival of RGCs (EGFR [2]): reverses this upregulation and activation of astrocytes and increases the survival of RGCs
